US20100104509A1, “HUMAN ANTIBODIES THAT BIND CD19 AND USES THEREOF” (Medarex, Inc., priority 2006, published 2010)

Test system: B-cells (CD22) in human whole blood
Experiment: Whole blood B-cell depletion assay
Assay type: cell-based
Conditions: overnight 37° C.; for % Change: B-cell depletion vs non-treated group
Experimental: To determine if the anti-CD19 antibodies were capable of depleting B-cells, a whole blood B-cell depletion assay was set up.
Human whole blood was purchased from AllCells Inc. (Berkeley, Calif.) and delivered the same day at room temperature. Two ml of whole blood was incubated in the absence or presence of […] of the indicated antibodies, or PBS as the untreated group. The blood-antibody mixture was incubated overnight at 37° C. with 5% CO2. On the day of the experiment, the blood was lysed twice with RBC lysis buffer at 1:10 ratio by incubating for 10 minutes followed by centrifugation. After the second spin, the cell pellets were washed once with FACS buffer (PBS plus Calcium and Magnesium with 2% FBS and 20% versene), and followed by FAGS staining with anti-CD3 antibody (Becton Dickinson) as the T-Cell makers and anti-CD22 antibody (Becton Dickinson) as a B-cell makers using standard Flow cytometry protocols. Cells were incubated on ice for 20 min prior to the final washes and resuspended in […] propidium iodide solution (Sigma) in FACS buffer. Data was collected by flow cytometry using a FASCalibur system and CellQuest software by Becton Dickinson, and analyzed via FlowJo software using lymphocyte size gating. Percent change was calculated by determining the % positive B-cells in the non-treated group minus the % positive B-cells in the antibody treated group divided by % positive B-cells in the non treated group times 100. From a healthy blood donor, 8.7% B-cells remained in the blood following an overnight incubation (no antibody). Incubating whole blood with […] of positive control Rituxan led to a 46% depletion in the number of B-cells when compared to the untreated, no antibody group.

Q: With “Rituxan: positive control in the whole blood B-cell depletion assay [reference compound]” as the substance, how does the “% Change” value read?
A: 46%

Q: And the “% Change” value (listed as Rituxan ®)?
A: 46.3%

Q: And the “% Positive (CD22)” value (1-30 mg/ml antibody)?
A: 4.7%
